Test results reported in US12091402B2 (Avilar Therapeutics, Inc., priority 2021, dated 2024).
Read-outs that look alike come from different tables or passages of the source. *1 amine or outer side, *2 acyl side, *3 side chain or, on linkers, in order; H or OH if unused. Where a SMILES comes first, the peptide text is derived from it. Bridges are numbered along the chain shown (N, C = ends). [ ]: non-standard residue; d: D form. The star is where a group is joined. X2 = O=C(CCOCC(COCCC(=O)NCCOCCOCCOCCOC[C@H]1OC[C@H](Nc2cncc(C(F)(F)F)n2)[C@@H](O)[C@H]1O)NCC(=O)*)NCCOCCOCCOCCOC[C@H]1OC[C@H](Nc2cncc(C(F)(F)F)n2)[C@@H](O)[C@H]1O; X1 = O=C([C@@H]1C[C@H](N[*:3])CN1[*:1])[*:2]

Key:
[1] = molecular target: T1, ASGPR receptor on the cell surface (HepG2 cells) (Homo sapiens, UniProt P07306); test: Ternary complex formation assay (flow cytometry, HepG2); type: cell-based
T1 construct: host or cells: HepG2
T1 sequence (P07306 1-291): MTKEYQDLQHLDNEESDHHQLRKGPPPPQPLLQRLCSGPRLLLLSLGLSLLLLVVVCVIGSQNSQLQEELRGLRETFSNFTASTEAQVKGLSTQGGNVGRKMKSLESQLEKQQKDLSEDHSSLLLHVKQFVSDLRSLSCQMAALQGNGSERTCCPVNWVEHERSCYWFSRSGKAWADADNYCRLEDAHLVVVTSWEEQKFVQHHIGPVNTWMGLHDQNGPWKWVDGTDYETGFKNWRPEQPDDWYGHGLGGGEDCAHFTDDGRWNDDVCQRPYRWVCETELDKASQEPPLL
T1 sequence (P07307 1-311 partner): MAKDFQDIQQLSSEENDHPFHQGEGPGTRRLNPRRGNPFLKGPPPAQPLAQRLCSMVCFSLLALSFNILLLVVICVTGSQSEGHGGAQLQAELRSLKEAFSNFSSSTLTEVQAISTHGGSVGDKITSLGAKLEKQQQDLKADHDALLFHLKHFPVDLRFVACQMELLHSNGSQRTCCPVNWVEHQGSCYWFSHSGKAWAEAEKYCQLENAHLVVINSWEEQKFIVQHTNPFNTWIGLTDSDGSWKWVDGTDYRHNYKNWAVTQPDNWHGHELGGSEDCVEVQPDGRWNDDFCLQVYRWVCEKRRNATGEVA
In short: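 HepG2 cells (1×10^5/well) incubated 1 h at 4 °C with 100 nM AF488-labeled anti-human IgG plus serial IgG-based degrader, or 100 nM AF488 rabbit anti-DNP plus serial DNP-based degrader. After washing, cell-associated AF488 MFI read by flow cytometry; peak MFI marks optimal degrader concentration for ternary complex.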

ASGPR = molecular target: T2, ASGPR (Homo sapiens, UniProt P07306); test: Affinity to ASGPR by surface plasmon resonance (SPR)
T2 sequence (P07306 1-291): T1 sequence (P07306 1-291)

IgG = test: Affinity to IgG by surface plasmon resonance (SPR); type: binding; conditions: SPR; read-out: IgG KD
Method: Immobilization levels ranging from 1000-1300 resonance units (RU) are obtained. The running buffer is 10 mM HEPES, pH 7.4, 400 mM NaCl, 0.005% P20, […].

HepG2 cells = test: Cellular uptake assay of AF488-labeled antibody (HepG2); type: cell-based; conditions: HepG2 cells; read-out: Uptake EC50
In short: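 HepG2 cells given 100 nM AF488-labeled human IgG or DNP antibody plus serial dilutions of matching degrader (0.1% DMSO final), 6 h at 37° C. Methanol-fixed, DAPI-stained and imaged by high-content analysis. Value is the fraction of AF488-positive cells over total DAPI-counted cells.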

[2] = TCF EC50, HepG2 cells, ternary complex formation

Row | SMILES | EC50 [1, 2] | Kd (ASGPR) | Kd (IgG) | EC50 (HepG2 cells) | EC50 [1] | EC50 ([1]; HepG2 cells, ternary complex formation, read-out: TCF EC50)
1 | CC(C)C[C@@H]1NC(=O)[C@H](Cc2c[nH]cn2)NC(=O)[C@H](Cc2c[nH]c3ccccc23)NC(=O)[C@H](C)NC(=O)[C@@H]2CSSC[C@H](NC(=O)[C@H](Cc3c[nH]c4ccccc34)NC(=O)[C@H](C(C)C)NC(=O)[C@H](CC(C)C)NC(=O)[C@H](CCC(=O)N(C)C)NC(=O)CNC1=O)C(=O)N[C@@H]([C@@H](C)O)C(=O)N1CCC[C@@H]1C(=O)N1C[C@@H](NC(=O)CNC(COCCC(=O)NCCOCCOCCOCCOC[C@H]3OC[C@H](Nc4cncc(C(F)(F)F)n4)[C@@H](O)[C@H]3O)COCCC(=O)NCCOCCOCCOCCOC[C@H]3OC[C@H](Nc4cncc(C(F)(F)F)n4)[C@@H](O)[C@H]3O)C[C@H]1C(=O)N[C@@H](CC(N)=O)C(=O)N2 [Compound 78] (cyclo(AWHLGE(NMe2)LVWCT[dP][X1](X2)NC); disulfide 10-15) | < 100 nM | < 100 nM | < 100 nM | < 100 nM |  | 
2 | CC(C)C[C@@H]1NC(=O)[C@H](C)NC(=O)CNC(=O)[C@H](CC(C)C)NC(=O)[C@H](Cc2c[nH]cn2)NC(=O)[C@H](Cc2c[nH]c3ccccc23)NC(=O)[C@H](C)NC(=O)[C@@H]2CSSC[C@H](NC(=O)[C@H](Cc3c[nH]c4ccccc34)NC(=O)[C@H](C(C)C)NC1=O)C(=O)N[C@@H]([C@@H](C)O)C(=O)N1CCC[C@@H]1C(=O)N1C[C@@H](NC(=O)CNC(COCCC(=O)NCCOCCOCCOCCOC[C@H]3OC[C@H](Nc4cncc(C(F)(F)F)n4)[C@@H](O)[C@H]3O)COCCC(=O)NCCOCCOCCOCCOC[C@H]3OC[C@H](Nc4cncc(C(F)(F)F)n4)[C@@H](O)[C@H]3O)C[C@H]1C(=O)N[C@@H](CC(N)=O)C(=O)N2 [Compound 79] (cyclo(ALVWCT[dP][X1](X2)NCAWHLG); disulfide 5-10) | < 100 nM | < 100 nM | < 100 nM | < 100 nM |  | 
3 | CC(=O)N[C@H]1[C@H](OCCOCCOCCOCCNC(=O)CCOCC(COCCC(=O)NCCOCCOCCOCCO[C@@H]2O[C@H](CO)[C@H](O)[C@H](O)[C@H]2NC(C)=O)NC(=O)CCCCCn2cc(CCCC(=O)NCCOCCOCCOCCOCCC(=O)N[C@H]3C[C@H]4C(=O)N[C@@H](CC(=O)O)C(=O)N[C@H]5CSSC[C@H](NC(=O)[C@H](Cc6c[nH]c7ccccc67)NC(=O)[C@H](C(C)C)NC(=O)[C@H](CC(C)C)NC(=O)[C@H](CCC(=O)O)NC(=O)CNC(=O)[C@H](CC(C)C)NC(=O)[C@H](Cc6c[nH]cn6)NC(=O)[C@H](Cc6c[nH]c7ccccc67)NC(=O)[C@H](C)NC5=O)C(=O)N[C@@H]([C@@H](C)O)C(=O)N5CCC[C@@H]5C(=O)N4C3)nn2)O[C@H](CO)[C@H](O)[C@@H]1O [Compound 84] |  | > 1000 nM | < 100 nM | > 1000 nM | > 1000 nM | 
4 | CC(=O)N[C@H]1[C@H](OCCOCCOCCOCCNC(=O)CCOCC(COCCC(=O)NCCOCCOCCOCCO[C@@H]2O[C@H](CO)[C@H](O)[C@H](O)[C@H]2NC(C)=O)(COCCC(=O)NCCOCCOCCOCCO[C@@H]2O[C@H](CO)[C@H](O)[C@H](O)[C@H]2NC(C)=O)NC(=O)CCCCCn2cc(CCCC(=O)NCCOCCOCCOCCOCCC(=O)N[C@H]3C[C@H]4C(=O)N[C@@H](CC(=O)O)C(=O)N[C@H]5CSSC[C@H](NC(=O)[C@H](Cc6c[nH]c7ccccc67)NC(=O)[C@H](C(C)C)NC(=O)[C@H](CC(C)C)NC(=O)[C@H](CCC(=O)O)NC(=O)CNC(=O)[C@H](CC(C)C)NC(=O)[C@H](Cc6c[nH]cn6)NC(=O)[C@H](Cc6c[nH]c7ccccc67)NC(=O)[C@H](C)NC5=O)C(=O)N[C@@H]([C@@H](C)O)C(=O)N5CCC[C@@H]5C(=O)N4C3)nn2)O[C@H](CO)[C@H](O)[C@@H]1O [Compound 85] |  | 500 to 1000 nM | < 100 nM | > 1000 nM | > 1000 nM | 
5 | CC(C)C[C@@H]1NC(=O)[C@H](Cc2c[nH]cn2)NC(=O)[C@H](Cc2c[nH]c3ccccc23)NC(=O)[C@H](C)NC(=O)[C@@H]2CSSC[C@H](NC(=O)[C@H](Cc3c[nH]c4ccccc34)NC(=O)[C@H](C(C)C)NC(=O)[C@H](CC(C)C)NC(=O)[C@H](CCC(=O)O)NC(=O)CNC1=O)C(=O)N[C@@H]([C@@H](C)O)C(=O)N1CCC[C@@H]1C(=O)N1C[C@@H](NC(=O)CCOCCOCCOCCOCCNC(=O)CCCc3cn(CCCCCC(=O)NC(COCCC(=O)NCCOCCOCCOCCOC[C@@]45CO[C@@H](O4)[C@H](NC(=O)C(F)(F)F)[C@@H](O)[C@H]5O)COCCC(=O)NCCOCCOCCOCCOC[C@@]45CO[C@@H](O4)[C@H](NC(=O)C(F)(F)F)[C@@H](O)[C@H]5O)nn3)C[C@H]1C(=O)N[C@@H](CC(=O)O)C(=O)N2 [Compound 94] |  | < 100 nM | < 100 nM | < 100 nM |  | < 100 nM
6 | CC(C)C[C@@H]1NC(=O)[C@H](Cc2c[nH]cn2)NC(=O)[C@H](Cc2c[nH]c3ccccc23)NC(=O)[C@H](C)NC(=O)[C@@H]2CSSC[C@H](NC(=O)[C@H](Cc3c[nH]c4ccccc34)NC(=O)[C@H](C(C)C)NC(=O)[C@H](CC(C)C)NC(=O)[C@H](CCC(=O)O)NC(=O)CNC1=O)C(=O)N[C@@H]([C@@H](C)O)C(=O)N1CCC[C@@H]1C(=O)N1C[C@@H](NC(=O)CCOCCOCCOCCOCCNC(=O)CCCc3cn(CCCCCC(=O)NC(COCCC(=O)NCCOCCOCCOCCOC[C@@]45CO[C@@H](O4)[C@H](NC(=O)C(F)(F)F)[C@@H](O)[C@H]5O)(COCCC(=O)NCCOCCOCCOCCOC[C@@]45CO[C@@H](O4)[C@H](NC(=O)C(F)(F)F)[C@@H](O)[C@H]5O)COCCC(=O)NCCOCCOCCOCCOC[C@@]45CO[C@@H](O4)[C@H](NC(=O)C(F)(F)F)[C@@H](O)[C@H]5O)nn3)C[C@H]1C(=O)N[C@@H](CC(=O)O)C(=O)N2 [Compound 95] |  | < 100 nM | < 100 nM | < 100 nM | < 100 nM | 
